Consider five compounds from patent US20050038058A1, “Novel compounds and methods for therapy” (Institute of Organic Chemistry and Biochemistry, priority 2001, published 2005).

Data set [1] concerns HIV-1(Ba-L). Nature of the data set: HIV-1(BaL) p24 antigen production in human primary macrophages (M/M). The format is cell-based. Conditions: Table 2; for EC50: Human immunodeficiency virus 1, BAL, Primary macrophage. An excerpt:
Viruses. The origins of MSV, HIV type 1 (HIV-1) (strain IIIB and Ba-L), HIV-2 (strain ROD) and FIV (strain Petaluma) have been described previously (Balzarini et al., AIDS 5: 21-28, 1991; De Clercq et al., Proc. Soc. Exp. Biol. Med. 137:590-594, 1971; Egberink et al., Proc. Natl. Acad. Sci. 87:3087-3091, 1990; Hartmann et al., Antiviral Chem. Chemother. 5:13-19, 1994; Popovic et al., Science 224:497-500, 1984). HIV-1(IIIB) and HIV-2(ROD) stocks were obtained from supernatants of virus-infected MT-4 cell cultures. HIV-1BaL was expanded in human primary M/M, whose supernatants were collected, filtered and stored at −80° C. before use. Characteristics of viral stocks used for this study were 2.1×10^8 HIV-RNA genomes/ml (corresponding to 35 ng of p24 antigen) and 5,000 tissue culture infectious doses 50% per ml (TCID50/ml) as assessed by virus titration in other primary M/M cultures. The isolation and characterization of the clinical HIV-1 isolates L1S, L6S and L6S/PMEA has been reported (Thormar et al., Proc. Natl. Acad. Sci. USA 93:3283-3287, 1995; Van Laethem et al., AIDS 15:553-561, 2001). The HIV-1/L1S clinical isolate was derived from a patient not treated with NRTIs (nucleoside reverse transcriptase inhibitors) or ANPs and cultured without the selective pressure of any drugs. Therefore, it contained no obvious mutations that are characteristic for NRTI- or ANP-treated patients. HIV-1/L6S is a clinical isolate from a drug-treated individual cultured without the selective pressure of any drugs. As is characteristic for NRTI-treated patients, it contained S68G, K70T, V75I, F77L, F116Y and Q151M mutations in its RT. HIV-1/L6S/PMEA is the clinical isolate HIV-1/L6S that has been isolated after culturing the virus for 11 passages in the presence of increasing concentrations of PMEA (adefovir). It gained, in addition to the mutations mentioned for HIV-1/L6S, also the PMEA-characteristic K65R mutation in its reverse transcriptase (RT).
Human primary macrophages (M/M) were prepared and purified as follows. Peripheral blood mononuclear cells (PBMC), obtained from healthy HIV-1-negative donors were separated over a Ficoll gradient and seeded in 48-well plates at 1.8×10^6 cells/well in 1 ml of RPMI 1640 containing 20% heat-inactivated, endotoxin- and mycoplasma-free fetal bovine serum (Hyclone Laboratories, Inc., Logan, Utah), 4 mM L-glutamine (Life Technologies), 50 U/ml penicillin and 50 μg/ml streptomycin (Life Technologies) (hereinafter referred to as complete medium). Five days after plating and culturing the PBMC at 37° C. in a humidified atmosphere enriched with 5% CO2-adherent cells were carefully removed with repeated washings with warmed RPMI-1640, leaving a monolayer of adherent cells which were finally incubated in complete medium. […]

The subject of data set [2] is MSV. Nature of the data set: MSV-induced transformation of murine embryo fibroblast C3H/3T3 cell cultures. Type of data set: cell-based. The conditions noted are these: for EC50: Mus musculus. Here is the method:
The inhibitory effect of the test compounds on MSV-induced transformation of murine embryo fibroblast C3H/3T3 cell cultures was examined microscopically at day 6 post infection. MSV was added at 75 focus-forming units to the cell cultures. The detailed procedures for the antiretroviral evaluations has been described in detail before (Balzarini et al., AIDS 5:21-28, 1991; Balzarini et al., Antimicrob. Agents Chemother. 37:332-338, 1993; De Clercq et al., Proc. Soc. Exp. Biol. Med. 137:590-594, 1971).

Data set [3] relates to PBL. As to the kind of experiment: Cell viability in PBL. The format is cell-based. Conditions: reduction of cell viability; Table 2.
The test system of data set [4] is monocyte/macrophages (M/M). Nature of the data set: Cell viability in monocyte/macrophages (M/M). The conditions noted are these: reduction of cell viability; Table 2. Type of data set: cell-based, human.
The subject of data set [5] is CrFK cells. Nature of the data set: Toxicity in CrFK cells. The conditions noted are these: Table 2. The format is cell-based, feline.
The subject of data set [6] is C3H cells. As to the kind of experiment: Alteration of C3H cell morphology (minimal inhibitory concentration). Conditions: for CC50 C3H (minimal inhibitory concentration): microscopically visible alteration of cell morphology, > means no visible toxicity at the indicated concentration; for Compound concentration at which morphological toxicity was observed, C3H (value between parentheses): Table 2, footnote c. The format is cell-based, murine.

Data set [7] has as its system CEM cells. As to the kind of experiment: Incorporation of [3H]thymidine, [3H]uridine and [3H]leucine into CEM cell material. The conditions noted are these: 200 μg/mL; 12 hour incubation period. Type of data set: cell-based. How it is done:
The incorporation of [methyl-^3H]thymidine, [^3H]uridine and [^3H]leucine into the methanol-insoluble CEM cell fraction was also measured in microplates. To each well were added 10^5 CEM cells, 5.9 pmol (0.25 μCi) of [methyl-^3H]thymidine, 38 pmol (1.0 μCi) of [^3H]uridine and 19 pmol (1.0 μCi) [4,5-^3H]leucine, and a given amount of the test compound. […] At the end of this incubation period, the contents of the wells (200 μl) were brought onto 25-mm glass fiber filters (type A/G; Gelman Instrument Co., Ann Arbor, Mich.) mounted on a Millipore 3025 sampling manifold apparatus. The filters were washed twice with cold PBS (phosphate-buffered saline), twice with cold 10% trichloroacetic acid, twice with cold 5% trichloroacetic acid, once with cold ethanol, and once with cold ether. The filters were then allowed to dry for 10 min at 60° C. and assayed for radioactivity in a toluene-based scintillant.

Data set [8] can be described thus: Cell viability in PBL. The format is cell-based. Conditions: human, reduction of cell viability, Table 2.
Data set [9] can be described thus: Cell viability in monocyte/macrophages (M/M). The format is cell-based, human. The conditions noted are these: human.
Data set [10] can be described thus: Alteration of C3H cell morphology (minimal inhibitory concentration). Type of data set: cell-based, murine. Conditions: mouse, microscopically visible alteration of cell morphology, > means no visible toxicity at the indicated concentration, read-out: CC50 C3H (minimal inhibitory concentration).
Setting [11] is: MSV-induced C3H cell transformation, Table 2.
Setting [12] is: MSV-induced C3H cell transformation, Table 2, read-out: EC50 MSV (C3H).
The mark [13] stands for this setting: C3H/3T3 embryo fibroblast cells.

The structures appear in SMILES notation. ≈ marks a conversion by molar mass, not a printed value. Like-named read-outs stand apart in the source and are kept apart here.

As for `C[C@H](Cn1cnc2c(N)ncnc21)OCP(=O)(O)O` [(R)-PMPA, (R)-9-[(2-phosphonomethoxy)-propyl]adenine, reference compound], in data set [1], the “EC50 HIV-1 (BaL) (M/M)” value was 0.003 ± 0.001 µg/mL (≈ 0.0104 µM). In addition, the “EC50 MSV (C3H)” value in data set [2] (setting [11]) came out at 1.4 ± 0.9 µg/mL (≈ 4.87 µM). Besides, the “CC50 PBL” value in data set [3] is greater than 100 µg/mL. In addition, in data set [4], the “CC50 M/M” value is greater than 100 µg/mL. Besides, the “CC50 CrFK” value in data set [5] was greater than 100 µg/mL. Further, the “CC50 C3H (minimal inhibitory concentration)” value in [6] was greater than 200 µg/mL. Moreover, in data set [7], the “Inhibition of [3H]dThd, [3H]Urd and [3H]leu incorporation into TCA-insoluble CEM cell material (macromolecular synthesis)” value (“Inhibition of [3H]dThd” for short) is on record as “not inhibitory”.
`Nc1cc(OCCOCP(=O)(O)O)nc(N)n1` [Compound 1, 2,4-diamino-6-[2-(phosphonomethoxy)ethoxy]pyrimidine]: the EC50 (in general, the concentration needed to bring the measured effect to its halfway point) in data set [1] is 0.002 ± 0.001 µg/mL (≈ 0.00757 µM); in data set [2] (C3H, read-out: EC50 against MSV-induced C3H cell transformation), 0.05 to 0.15 µg/mL (≈ 0.189 to 0.568 µM); in [2] (setting [12]), 0.16 ± 0.04 µg/mL (≈ 0.606 µM). In addition, the CC50 in data set [8] (PHA-stimulated peripheral blood mononuclear cells (PBL)) is 2.2 ± 0.8 µg/mL (≈ 8.33 µM); in [9], greater than 100 µg/mL. The Minimal concentration causing visible cell morphology alteration in data set [10] (setting [13]) was greater than 40 µg/mL. Moreover, the “Compound concentration at which morphological toxicity was observed, C3H (value between parentheses)” value in data set [6] is 200 μg/ml. For the same compound, in data set [7], the “Inhibition of [3H]dThd” value was “Neither compounds 1 nor 2, nor compound 11 were inhibitory”.
For the compound `Nc1cc(SCCOCP(=O)(O)O)nc(N)n1` [Compound 2, 2,4-diamino-6-{[2-(phosphonomethoxy)ethyl]-sulfanyl}pyrimidine], the EC50 in data set [2] (setting [12]) was 1.7 ± 0.9 µg/mL (≈ 6.07 µM). In [10] (setting [13]), the Minimal concentration causing visible cell morphology alteration is greater than 40 µg/mL. Besides, in data set [6], the “Compound concentration at which morphological toxicity was observed, C3H (value between parentheses)” value is 200 μg/ml. In addition, the “Inhibition of [3H]dThd” value in data set [7] was “Neither compounds 1 nor 2, nor compound 11 were inhibitory”.
As to `C[C@H](COc1cc(N)nc(N)n1)OCP(=O)(O)O` [Compound 11, 2,4-diamino-6-(R)-[2-(phosphonomethoxy)propoxy]pyrimidine], the “EC50 HIV-1 (BaL) (M/M)” value in [1] was 0.005 ± 0.0 µg/mL (≈ 0.018 µM). In addition, in data set [2] (setting [11]), the “EC50 MSV (C3H)” value is 0.05 ± 0.01 µg/mL (≈ 0.18 µM). The “CC50 PBL” value in data set [3] is 9.6 ± 2.5 µg/mL (≈ 34.5 µM). In addition, in [4], the “CC50 M/M” value is greater than 100 µg/mL. In addition, the “CC50 CrFK” value in data set [5] is greater than 100 µg/mL. In [6], the “Compound concentration at which morphological toxicity was observed, C3H (value between parentheses)” value is on record as 200 μg/ml and the “CC50 C3H (minimal inhibitory concentration)” value is greater than 40 µg/mL. The “Inhibition of [3H]dThd” value in [7] is “Neither compounds 1 nor 2, nor compound 11 were inhibitory”.
Take `Nc1ncnc2c1ncn2CCOCP(=O)(O)O` [PMEA, 9-[(2-phosphono-methoxy)ethyl]adenine, reference compound]: the EC50 was found to be 0.006 µg/mL (≈ 0.022 µM) in data set [1] and 0.62 ± 0.27 µg/mL (≈ 2.27 µM) in data set [2] (setting [12]). The CC50 in data set [8] was 1.7 ± 0.4 µg/mL (≈ 6.22 µM); in [9] (reduction of cell viability, Table 2, read-out: CC50 M/M), greater than 100 µg/mL. Moreover, the Minimal concentration causing visible cell morphology alteration in data set [10] is greater than 40 µg/mL. Also, the “Compound concentration at which morphological toxicity was observed, C3H (value between parentheses)” value in [6] stood at 200 μg/ml. The “Inhibition of [3H]dThd” value in [7] was “not inhibitory”.
